Reference: publication PMC5218480 (PLoS ONE, 2017)

Tested on: MV-4-11 cells
Assay: Gene expression microarray analysis (Affymetrix PrimeView) and GSEA
Type: cell-based, human
Parameters: RFU PODN (11730768_x_at) / Fold change /veh PODN (11730768_x_at) / RFU LINC00158 (11744669_a_at) / Fold change /veh LINC00158 (11744669_a_at) / RFU DUSP10 (11751237_a_at) / Fold change /veh DUSP10 (11751237_a_at) / RFU ID3 (11757404_x_at) / Fold change /veh ID3 (11757404_x_at) / RFU PLEKHG5 (11737974_s_at) / Fold change /veh PLEKHG5 (11737974_s_at) / RFU LRRC4B (11730491_at) / Fold change /veh LRRC4B (11730491_at) / RFU GIMAP4 (11747438_a_at) / Fold change /veh GIMAP4 (11747438_a_at) / RFU KRT8 (11758183_x_at) / Fold change /veh KRT8 (11758183_x_at) / RFU CNN1 (11734310_a_at) / Fold change /veh CNN1 (11734310_a_at) / RFU VPS37D (11726825_at) / Fold change /veh VPS37D (11726825_at) / RFU C10orf10 (11716522_x_at) / Fold change /veh C10orf10 (11716522_x_at) / RFU KIR2DL2 /// KIR2DL4 /// KIR2DL5A /// KIR2DL5B /// KIR2DS1 /// KIR2DS2 /// KIR2DS3 /// KIR2DS4 /// KIR3DL3 /// KIR3DL3 /// KIR3DS1 (11738374_at) / Fold change /veh KIR2DL2 /// KIR2DL4 /// KIR2DL5A /// KIR2DL5B /// KIR2DS1 /// KIR2DS2 /// KIR2DS3 /// KIR2DS4 /// KIR3DL3 /// KIR3DL3 /// KIR3DS1 (11738374_at) / RFU C1QL1 (11718748_at) / Fold change /veh C1QL1 (11718748_at) / RFU TMPRSS4 (11747572_a_at) / Fold change /veh TMPRSS4 (11747572_a_at) / RFU HAMP (11756126_x_at) / Fold change /veh HAMP (11756126_x_at) / RFU RNFT2 (11725882_a_at) / Fold change /veh RNFT2 (11725882_a_at) / RFU NR4A2 (11747474_a_at) / Fold change /veh NR4A2 (11747474_a_at) / RFU ABCC12 (11746883_a_at) / Fold change /veh ABCC12 (11746883_a_at) / RFU TMEM136 (11760407_x_at) / Fold change /veh TMEM136 (11760407_x_at) / RFU CLDN22 /// WWC2 (11732394_at) / Fold change /veh CLDN22 /// WWC2 (11732394_at) / RFU HLA-DPB1 (11760878_x_at) / Fold change /veh HLA-DPB1 (11760878_x_at) / RFU SPINT1 (11716480_a_at) / Fold change /veh SPINT1 (11716480_a_at) / RFU GAP43 (11754022_s_at) / Fold change /veh GAP43 (11754022_s_at) / RFU A4GNT (11735810_at) / Fold change /veh A4GNT (11735810_at) / RFU PRB3 (11715151_x_at) / Fold change /veh PRB3 (11715151_x_at) / RFU TUBB4B (11761932_at) / Fold change /veh TUBB4B (11761932_at) / RFU CAPN14 (11732068_a_at) / Fold change /veh CAPN14 (11732068_a_at) / RFU TMCC2 (11721928_a_at) / Fold change /veh TMCC2 (11721928_a_at) / RFU IRGQ (11745062_a_at) / Fold change /veh IRGQ (11745062_a_at) / RFU FAM174B (11720279_a_at) / Fold change /veh FAM174B (11720279_a_at) / RFU TMPRSS4 (11748680_a_at) / Fold change /veh TMPRSS4 (11748680_a_at) / RFU FAM212B (11763350_a_at) / Fold change /veh FAM212B (11763350_a_at) / RFU PLEKHG5 (11743358_a_at) / Fold change /veh PLEKHG5 (11743358_a_at) / RFU ZSCAN30 (11745921_a_at) / Fold change /veh ZSCAN30 (11745921_a_at) / RFU CMKLR1 (11741424_a_at) / Fold change /veh CMKLR1 (11741424_a_at) / RFU LOC101060620 /// MAPK8IP1 (11723275_at) / Fold change /veh LOC101060620 /// MAPK8IP1 (11723275_at) / RFU SPTSSB (11747773_x_at) / Fold change /veh SPTSSB (11747773_x_at) / RFU PRSS12 (11739890_at) / Fold change /veh PRSS12 (11739890_at) / RFU BIN1 (11741810_x_at) / Fold change /veh BIN1 (11741810_x_at) / RFU WNT11 (11732464_a_at) / Fold change /veh WNT11 (11732464_a_at) / RFU C10orf10 (11716521_a_at) / Fold change /veh C10orf10 (11716521_a_at) / RFU C5orf56 (11738089_at) / Fold change /veh C5orf56 (11738089_at) / RFU CYB561 (11721691_x_at) / Fold change /veh CYB561 (11721691_x_at) / RFU ANKRD19P (11752326_a_at) / Fold change /veh ANKRD19P (11752326_a_at) / RFU OR2T12 /// OR2T33 /// OR2T8 (11738714_s_at) / Fold change /veh OR2T12 /// OR2T33 /// OR2T8 (11738714_s_at) / RFU VCAN (11748164_a_at) / Fold change /veh VCAN (11748164_a_at) / RFU JSRP1 (11732532_at) / Fold change /veh JSRP1 (11732532_at) / RFU KRTAP10-11 (11738290_x_at) / Fold change /veh KRTAP10-11 (11738290_x_at) / RFU MYO3A (11730013_a_at) / Fold change /veh MYO3A (11730013_a_at) / RFU EBF3 (11725865_a_at) / Fold change /veh EBF3 (11725865_a_at) / RFU CAMK2N1 (11719241_x_at) / Fold change /veh CAMK2N1 (11719241_x_at) / RFU C5orf56 (11738088_a_at) / Fold change /veh C5orf56 (11738088_a_at) / RFU OLFML3 (11715873_a_at) / Fold change /veh OLFML3 (11715873_a_at) / RFU LOC100653217 /// NTM (11731650_a_at) / Fold change /veh LOC100653217 /// NTM (11731650_a_at) / RFU MAPK11 (11762145_a_at) / Fold change /veh MAPK11 (11762145_a_at) / RFU FIZ1 (11724087_x_at) / Fold change /veh FIZ1 (11724087_x_at) / RFU OASL (11726364_x_at) / Fold change /veh OASL (11726364_x_at) / RFU SOX15 (11748057_x_at) / Fold change /veh SOX15 (11748057_x_at) / RFU CD79A (11719716_a_at) / Fold change /veh CD79A (11719716_a_at) / RFU HIST1H1D (11736915_at) / Fold change /veh HIST1H1D (11736915_at) / RFU CASKIN2 (11723855_a_at) / Fold change /veh CASKIN2 (11723855_a_at) / RFU LOC730098 (11760151_x_at) / Fold change /veh LOC730098 (11760151_x_at) / RFU OR4N2 (11742367_at) / Fold change /veh OR4N2 (11742367_at) / RFU PRRT2 (11749266_a_at) / Fold change /veh PRRT2 (11749266_a_at) / RFU SNX32 (11753110_a_at) / Fold change /veh SNX32 (11753110_a_at) / RFU CDHR5 (11726645_a_at) / Fold change /veh CDHR5 (11726645_a_at) / RFU RCAN1 (11760418_a_at) / Fold change /veh RCAN1 (11760418_a_at) / RFU FAM167A (11723789_a_at) / Fold change /veh FAM167A (11723789_a_at) / RFU FAM26E (11764081_at) / Fold change /veh FAM26E (11764081_at) / RFU ISYNA1 (11749810_s_at) / Fold change /veh ISYNA1 (11749810_s_at) / RFU ACY1 (11761880_at) / Fold change /veh ACY1 (11761880_at) / RFU 11764098_at / Fold change /veh 11764098_at / RFU SAMD14 (11745864_x_at) / Fold change /veh SAMD14 (11745864_x_at) / RFU NPB (11741838_a_at) / Fold change /veh NPB (11741838_a_at) / RFU TMPRSS6 (11731388_a_at) / Fold change /veh TMPRSS6 (11731388_a_at) / RFU KRTAP10-2 (11738614_at) / Fold change /veh KRTAP10-2 (11738614_at) / RFU ARHGAP8 /// PRR5-ARHGAP8 (11727945_x_at) / Fold change /veh ARHGAP8 /// PRR5-ARHGAP8 (11727945_x_at) / RFU KRTAP5-7 /// NADSYN1 (11734609_at) / Fold change /veh KRTAP5-7 /// NADSYN1 (11734609_at) / RFU RASL12 (11751679_a_at) / Fold change /veh RASL12 (11751679_a_at) / RFU CDKN2B (11736163_a_at) / Fold change /veh CDKN2B (11736163_a_at) / RFU PRF1 (11729649_at) / Fold change /veh PRF1 (11729649_at) / RFU, ZNF638 /// ZNF638-IT1 / Fold change vs veh, ZNF638 /// ZNF638-IT1 / RFU, PANK3 / Fold change vs veh, PANK3 / RFU, SH3YL1 / Fold change vs veh, SH3YL1 / RFU, ZEB2 / Fold change vs veh, ZEB2 / RFU, NRIP1 / Fold change vs veh, NRIP1 / RFU, PTTG1IP / Fold change vs veh, PTTG1IP / RFU, CAPN2 / Fold change vs veh, CAPN2 / RFU, MED14 / Fold change vs veh, MED14 / RFU, SNORA58 / Fold change vs veh, SNORA58 / RFU, C1orf63 / Fold change vs veh, C1orf63 / RFU, LRRFIP1 / Fold change vs veh, LRRFIP1 / RFU, NDUFAF7 / Fold change vs veh, NDUFAF7 / RFU, SLC12A2 / Fold change vs veh, SLC12A2 / RFU, IBTK / Fold change vs veh, IBTK / RFU, ESF1 / Fold change vs veh, ESF1 / Fold change vs veh, TMEM50B / RFU, TAOK1 / Fold change vs veh, TAOK1 / RFU, ACBD3 / Fold change vs veh, ACBD3 / RFU, TMA16 / Fold change vs veh, TMA16 / RFU, RWDD3 / Fold change vs veh, RWDD3 / RFU, BCAT1 / Fold change vs veh, BCAT1 / RFU, EDEM3 / Fold change vs veh, EDEM3 / RFU, TMEM33 / Fold change vs veh, TMEM33 / RFU, WDR75 / Fold change vs veh, WDR75 / RFU, AHCTF1 / Fold change vs veh, AHCTF1 / RFU, TFRC / Fold change vs veh, TFRC / RFU, ZDHHC17 / Fold change vs veh, ZDHHC17 / RFU, NOM1 / Fold change vs veh, NOM1 / RFU, ARL8B / Fold change vs veh, ARL8B / RFU, ZBTB11 / Fold change vs veh, ZBTB11 / RFU, TAMM41 / Fold change vs veh, TAMM41 / RFU, KIAA1704 /// LOC100996395 / Fold change vs veh, KIAA1704 /// LOC100996395 / RFU, ING1 / Fold change vs veh, ING1 / RFU, TRMT61B / Fold change vs veh, TRMT61B / RFU, FUBP3 / Fold change vs veh, FUBP3 / RFU, TP53 / Fold change vs veh, TP53 / RFU, TNKS2 / Fold change vs veh, TNKS2 / RFU, ZFP14 / Fold change vs veh, ZFP14 / RFU, ACTR2 / Fold change vs veh, ACTR2 / RFU, PPP3R1 / Fold change vs veh, PPP3R1 / RFU, PIK3R1 / Fold change vs veh, PIK3R1 / RFU, HNRNPA1 / Fold change vs veh, HNRNPA1 / RFU, RNF170 / Fold change vs veh, RNF170 / RFU, ZNF28 / Fold change vs veh, ZNF28 / RFU, RNGTT / Fold change vs veh, RNGTT / RFU, OGT / Fold change vs veh, OGT / RFU, BRD1 / Fold change vs veh, BRD1 / RFU, MARS / Fold change vs veh, MARS / RFU, ZNF655 / Fold change vs veh, ZNF655 / RFU, FAHD1 / Fold change vs veh, FAHD1 / RFU, BDP1 / Fold change vs veh, BDP1 / RFU, LRRCC1 / Fold change vs veh, LRRCC1 / RFU, ARID1A / Fold change vs veh, ARID1A / RFU, ZNF146 / Fold change vs veh, ZNF146 / RFU, ZNF330 / Fold change vs veh, ZNF330 / RFU, GPN3 / Fold change vs veh, GPN3 / RFU, C9orf123 / Fold change vs veh, C9orf123 / RFU, N4BP2L2 / Fold change vs veh, N4BP2L2 / RFU, ARFIP1 / Fold change vs veh, ARFIP1 / RFU, FAM179B / Fold change vs veh, FAM179B / RFU, BCL10 / Fold change vs veh, BCL10 / RFU, UHRF1BP1L / Fold change vs veh, UHRF1BP1L / RFU, BET1 / Fold change vs veh, BET1 / RFU, CNOT2 / Fold change vs veh, CNOT2 / RFU, ZNF268 / Fold change vs veh, ZNF268 / Fold change vs veh, ZNF507 / RFU, DGCR2 / Fold change vs veh, DGCR2 / RFU, WDSUB1 / Fold change vs veh, WDSUB1 / Fold change vs veh, HSP90B1 /// MIR3652 / RFU, ADSS / Fold change vs veh, ADSS / RFU, GK / Fold change vs veh, GK / RFU, ZNF148 / Fold change vs veh, ZNF148 / RFU, TAF9 / Fold change vs veh, TAF9 / RFU, SLC1A5 / Fold change vs veh, SLC1A5 / RFU, SLMO2 / Fold change vs veh, SLMO2 / RFU, ABCC4 / Fold change vs veh, ABCC4 / RFU, LOC101060439 /// RAP1B / Fold change vs veh, LOC101060439 /// RAP1B / RFU, RFX7 / Fold change vs veh, RFX7 / RFU, GTPBP10 / Fold change vs veh, GTPBP10 / RFU, CNEP1R1 / Fold change vs veh, CNEP1R1 / RFU, BIVM-ERCC5 /// ERCC5 / Fold change vs veh, BIVM-ERCC5 /// ERCC5 / RFU, ILF3 / Fold change vs veh, ILF3 / RFU 11762660_at / Fold change /veh 11762660_at / RFU VCAN (11757783_s_at) / Fold change /veh VCAN (11757783_s_at) / RFU DDX43 (11728927_at) / Fold change /veh DDX43 (11728927_at) / RFU KRT8 (11758188_x_at) / Fold change /veh KRT8 (11758188_x_at) / RFU NKD1 (11759106_at) / Fold change /veh NKD1 (11759106_at) / RFU SRD5A1 (11742802_a_at) / Fold change /veh SRD5A1 (11742802_a_at) / RFU TPSAB1 /// TPSB2 (11721975_s_at) / Fold change /veh TPSAB1 /// TPSB2 (11721975_s_at) / RFU GSTM3 (11746129_a_at) / Fold change /veh GSTM3 (11746129_a_at) / RFU IL23R (11737362_x_at) / Fold change /veh IL23R (11737362_x_at) / RFU TMEM51 (11727254_a_at) / Fold change /veh TMEM51 (11727254_a_at) / RFU PIWIL2 (11732686_x_at) / Fold change /veh PIWIL2 (11732686_x_at) / RFU ORM1 (11744905_x_at) / Fold change /veh ORM1 (11744905_x_at) / RFU CCDC152 (11743942_at) / Fold change /veh CCDC152 (11743942_at) / RFU ECM1 (11717891_a_at) / Fold change /veh ECM1 (11717891_a_at) / RFU IL23R (11748794_a_at) / Fold change /veh IL23R (11748794_a_at) / RFU TNFAIP8L3 (11732012_x_at) / Fold change /veh TNFAIP8L3 (11732012_x_at) / RFU MBOAT4 (11741988_at) / Fold change /veh MBOAT4 (11741988_at) / RFU 11764193_at / Fold change /veh 11764193_at / RFU TMEM53 (11763286_at) / Fold change /veh TMEM53 (11763286_at) / RFU MAGEB2 (11727129_at) / Fold change /veh MAGEB2 (11727129_at) / RFU TMEM200A (11744735_a_at) / Fold change /veh TMEM200A (11744735_a_at) / RFU CCDC152 (11751479_a_at) / Fold change /veh CCDC152 (11751479_a_at) / RFU FAM211A (11726209_a_at) / Fold change /veh FAM211A (11726209_a_at) / RFU RGS16 (11746705_a_at) / Fold change /veh RGS16 (11746705_a_at) / RFU VCAN (11755009_s_at) / Fold change /veh VCAN (11755009_s_at) / RFU RHOB (11743442_s_at) / Fold change /veh RHOB (11743442_s_at) / RFU RGS16 (11720943_a_at) / Fold change /veh RGS16 (11720943_a_at) / RFU RGS16 (11720944_at) / Fold change /veh RGS16 (11720944_at) / RFU, VPS4B / Fold change vs veh, VPS4B / RFU, CREB1 / Fold change vs veh, CREB1 / RFU, DNAJC13 / Fold change vs veh, DNAJC13 / RFU, GNAQ / Fold change vs veh, GNAQ / RFU, CDK5R1 / Fold change vs veh, CDK5R1 / RFU, ZRANB3 / Fold change vs veh, ZRANB3 / RFU, CUL4A / Fold change vs veh, CUL4A / RFU, CCNY / Fold change vs veh, CCNY / RFU, UFL1 / Fold change vs veh, UFL1 / RFU, COG3 / Fold change vs veh, COG3 / RFU, DIAPH2 / Fold change vs veh, DIAPH2 / RFU, SKA2 / Fold change vs veh, SKA2 / RFU, AFF3 / Fold change vs veh, AFF3 / RFU, LMF1 / Fold change vs veh, LMF1 / RFU, IPO11 / Fold change vs veh, IPO11 / RFU, DFFB / Fold change vs veh, DFFB / RFU, FOXP1 / Fold change vs veh, FOXP1 / RFU, CARD8 / Fold change vs veh, CARD8 / RFU, STRN3 / Fold change vs veh, STRN3 / RFU, ADK / Fold change vs veh, ADK / RFU, RASSF2 / Fold change vs veh, RASSF2 / RFU, WIPF1 / Fold change vs veh, WIPF1 / RFU, LARP1B / Fold change vs veh, LARP1B / RFU, RASA1 / Fold change vs veh, RASA1 / RFU, RB1 / Fold change vs veh, RB1 / RFU, PPFIA1 / Fold change vs veh, PPFIA1 / RFU, MAT2A / Fold change vs veh, MAT2A / RFU, CCT5 / Fold change vs veh, CCT5 / RFU, WDR92 / Fold change vs veh, WDR92 / RFU, CUX1 / Fold change vs veh, CUX1 / RFU, TTC7A / Fold change vs veh, TTC7A / RFU, TMEM135 / Fold change vs veh, TMEM135 / RFU, DEPTOR / Fold change vs veh, DEPTOR / RFU, CPM / Fold change vs veh, CPM / RFU, DNAJB6 / Fold change vs veh, DNAJB6 / RFU, CACNA2D3 / Fold change vs veh, CACNA2D3 / RFU, DTX4 / Fold change vs veh, DTX4 / RFU, TFCP2 / Fold change vs veh, TFCP2 / RFU, GMCL1 /// GMCL1P1 / Fold change vs veh, GMCL1 /// GMCL1P1 / RFU, AEBP2 / Fold change vs veh, AEBP2 / RFU, SNHG1 /// SNORD22 /// SNORD25 /// SNORD26 /// SNORD27 /// SNORD28 /// SNORD29 /// SNORD31 / Fold change vs veh, SNHG1 /// SNORD22 /// SNORD25 /// SNORD26 /// SNORD27 /// SNORD28 /// SNORD29 /// SNORD31 / Fold change (Aza/veh), C12orf56 (ProbeSet 11735607_a_at) / Fold change (ACY-1035/veh), C12orf56 (ProbeSet 11735607_a_at) / Fold change (Aza/veh), FGFR1OP (ProbeSet 11751329_s_at) / Fold change (ACY-1035/veh), FGFR1OP (ProbeSet 11751329_s_at) / Fold change (Aza/veh), VPS36 (ProbeSet 11739960_a_at) / Fold change (ACY-1035/veh), VPS36 (ProbeSet 11739960_a_at) / RFU SYPL1 (11715823_x_at) / Fold change /veh SYPL1 (11715823_x_at) / RFU IGFBP7 (11715501_s_at) / Fold change /veh IGFBP7 (11715501_s_at) / RFU REEP3 (11722064_at) / Fold change /veh REEP3 (11722064_at) / RFU IGLL1 (11728026_x_at) / Fold change /veh IGLL1 (11728026_x_at): dose or concentration left out as unconfirmed
Settings: MV-4-11 cells, 48 hours

Q: For `Nc1ncn([C@@H]2O[C@H](CO)[C@@H](O)[C@H]2O)c(=O)n1` [azacitidine], which “Fold change /veh PIWIL2 (11732686_x_at)” value is on record?
A: Its value is 1.30.
